Assay results published in US20260166039A1 (SCHRÖDINGER, INC., priority 2022, published 2026).
Like-named read-outs stand apart in the source and are kept apart here.

Columns and labels:
[1] = tested on: phosphorylation of Cdc2 Y15 (Wee1 substrate) in A427 cells; assay: Phosphorylated Cdc2 MSD Electrochemiluminescence Assay; assay type: cell-based; conditions: Homo sapiens
In short: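 Read-out: percent residual phospho-Cdc2 Y15 relative to DMSO and positive-control Wee1 inhibitor, measured by MSD electrochemiluminescence capture/detection antibody assay in cell lysates. A427 cells received duplicate 3-fold compound dilution series 20 h post-seeding, with 6 h total incubation at 37 °C.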

Wee1 kinase domain = biological target: T1, Wee1 kinase domain (Homo sapiens, UniProt P30291); assay: Wee1 Kinase Biochemical Assay (ADP-Glo); conditions: 15 uM ATP
T1 construct: Wee1 kinase domain was purchased from Carna (catalog #05-177); purchased Carna 05-177
In short: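 The reaction mix held 1 nM Wee1 kinase domain, 15 uM ATP and 2 ng/mL Poly(Lys,Tyr 4:1) substrate and was left for 4 hours at 25 °C. ADP production was then measured with ADP-Glo, and percent inhibition was derived relative to DMSO and a saturating Wee1 inhibitor.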

[2] = A-427, class symbols, read-out: A427 pCDC2 MSD IC50
[3] = class symbols, 1 nM Wee1 enzyme, 4 hours at 25° C.

T1 sequence (P30291 299-569 limits assumed): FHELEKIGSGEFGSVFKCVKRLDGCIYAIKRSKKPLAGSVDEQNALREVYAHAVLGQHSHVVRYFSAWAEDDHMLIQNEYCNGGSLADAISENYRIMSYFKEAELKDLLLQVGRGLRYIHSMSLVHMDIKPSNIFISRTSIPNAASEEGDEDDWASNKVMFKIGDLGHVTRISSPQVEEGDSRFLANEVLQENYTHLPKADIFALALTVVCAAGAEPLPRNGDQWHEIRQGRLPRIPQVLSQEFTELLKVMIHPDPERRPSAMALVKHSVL

Compound | IC50 [1, 2] | IC50 (Wee1 kinase domain; [3]) | IC50 ([1]; A-427, pCDC2 MSD) | IC50 (Wee1 kinase domain; Wee1 kinase domain, ADP-Glo) | other results
CC1(C)C[C@H]2N(c3cccc([C@H]4CNCCO4)n3)c3nc(Nc4ccc(N5CCOCC5)cc4)ncc3[C@@]2(C)CO1 [Example 737, (4bR,8aR)-4b,7,7-trimethyl-9-(6-((R)-morpholin-2-yl)pyridin-2-yl)-N-(4-morpholinophenyl)-4b,5,7,8,8a,9-hexahydropyrano[3′,4′:4,5]pyrrolo[2,3-d]pyrimidin-2-amine] | 100 to 1000 nM | < 10 nM |  |  | 
CC1(C)CC2N(c3cccc(N=S(C)(C)=O)n3)c3nc(Nc4ccc(N5CCOCC5)cc4)ncc3C2(C)CO1 (single isomer, unassigned) [Example 496] | 100 to 1000 nM | < 10 nM |  |  | 
CC[C@@]1(O)CCc2ccc(N3c4nc(Nc5ccn(C6CCN(C)CC6)c(=O)c5)ncc4[C@@]4(C)COC(C)(C)C[C@@H]34)nc21 [Example 812, 4-(((4bR,8aR)-9-((R)-7-ethyl-7-hydroxy-6,7-dihydro-5H-cyclopenta[b]pyridin-2-yl)-4b,7,7-trimethyl-4b,5,7,8,8a,9-hexahydropyrano[3′,4′:4,5]pyrrolo[2,3-d]pyrimidin-2-yl)amino)-1-(1-methylpiperidin-4-yl)pyridin-2(1H)-one] |  |  |  |  | IC50 ([1]; A-427, read-out: A427 pCDC2 MSD IC50): 100 to 1000 nM; IC50 (Wee1 kinase domain; 1 nM Wee1 enzyme, 4 hours at 25° C): < 10 nM
CN1CC[C@@H]2CN(c3ccc(Nc4ncc5c(n4)N(c4cccc(C(C)(C)O)n4)[C@@H]4CC(C)(C)OC[C@]54C)cc3)C[C@@H]21 (single isomer, unassigned) [Example 437] | 100 to 1000 nM | < 10 nM |  |  | 
CNCc1cccc(N2c3nc(NC(=O)[C@@H]4C[C@H]4c4cnn(C)c4)ncc3[C@@]3(C)COC(C)(C)C[C@@H]23)n1 [Example 764, (1R,2R)-2-(1-methyl-1H-pyrazol-4-yl)-N-((4bR,8aR)-4b,7,7-trimethyl-9-(6-((methylamino)methyl)pyridin-2-yl)-4b,5,7,8,8a,9-hexahydropyrano[3′,4′:4,5]pyrrolo[2,3-d]pyrimidin-2-yl)cyclopropane-1-carboxamide] | 100 to 1000 nM | < 10 nM |  |  | 
CC1(C)C[C@H]2N(c3cccc([C@H]4CCNC4)n3)c3nc(Nc4ccc(N5CCOCC5)cc4)ncc3[C@@]2(C)CO1 (single isomer, unassigned) [Example 542] | 100 to 1000 nM | < 10 nM |  |  | 
CN1CCC[C@H]1c1cccc(N2c3nc(Nc4ccn(C5CCOCC5)c(=O)c4)ncc3[C@@]3(C)COC(C)(C)C[C@@H]23)n1 (single isomer, unassigned) [Example 393] |  |  | 1000 to 10000 nM | < 10 nM | 

More lines, main results first:

IC50 [1, 2] | IC50 (Wee1 kinase domain; [3]) | IC50 ([1]; A-427, pCDC2 MSD) | IC50 (Wee1 kinase domain; Wee1 kinase domain, ADP-Glo) | Compound | other results
 |  | 100 to 1000 nM | < 10 nM | CN1CCN(c2ccc(Nc3ncc4c(n3)N(c3cccc(C(C)(C)O)n3)[C@@H]3CC(C)(C)OC[C@]43C)cc2)CC1 (single isomer, unassigned) [Example 4] | 
 |  | 100 to 1000 nM | < 10 nM | C[C@H]1COC(=O)N1c1cccc(N2c3nc(Nc4ccc(C5CCN(C)CC5)cc4)ncc3[C@@]3(C)COC(C)(C)C[C@@H]23)n1 (single isomer, unassigned) [Example 251] | 
 |  | 100 to 1000 nM | < 10 nM | C[C@H]1COC(=O)N1c1cccc(N2c3nc(Nc4ccc(N5CCN(C)CC5=O)cc4)ncc3[C@@]3(C)COC(C)(C)C[C@@H]23)n1 (single isomer, unassigned) [Example 271] | 
100 to 1000 nM | < 10 nM |  |  | CC1(C)C[C@H]2N(c3cccc(N4CCOC4=O)n3)c3nc(Nc4ccc([C@H]5CNC[C@H]5F)cc4)ncc3[C@@]2(C)CO1 [Example 672, 3-(6-((4bR,8aR)-2-((4-((3S,4S)-4-fluoropyrrolidin-3-yl)phenyl)amino)-4b,7,7-trimethyl-4b,7,8,8a-tetrahydropyrano[3′,4′:4,5]pyrrolo[2,3-d]pyrimidin-9(5H)-yl)pyridin-2-yl)oxazolidin-2-one] | 
100 to 1000 nM | < 10 nM |  |  | CN1C[C@@H]2C[C@H]1CN2c1ccc(Nc2ncc3c(n2)N(c2cccc(N4CCCC4=O)n2)[C@@H]2CC(C)(C)OC[C@]32C)cc1 [Example 629, 1-(6-((4bR,8aR)-4b,7,7-trimethyl-2-((4-((1S,4S)-5-methyl-2,5-diazabicyclo[2.2.1]heptan-2-yl)phenyl)amino)-4b,7,8,8a-tetrahydropyrano[3′,4′:4,5]pyrrolo[2,3-d]pyrimidin-9(5H)-yl)pyridin-2-yl)pyrrolidin-2-one] | 
